The values that follow are results of earlier work, collected in US20240174671A1, “New 2,3-Dihydro-1H-pyrrolo[3,2-b]pyridine Derivatives as Sigma Ligands” (ACONDICIONAMIENTO TARRASENSE, priority 2021, published 2024).

One data set deals with sigma-2 site (Homo sapiens, UniProt Q5BJF2). The conditions noted are these: background statement; cited from earlier work.
Data set [1] has as its system mechanical hypersensitivity in SNI mice. The conditions noted are these: SNI mice model of neuropathic pain; cited from earlier work.

Sequence of sigma-2 site (Q5BJF2 whole entry): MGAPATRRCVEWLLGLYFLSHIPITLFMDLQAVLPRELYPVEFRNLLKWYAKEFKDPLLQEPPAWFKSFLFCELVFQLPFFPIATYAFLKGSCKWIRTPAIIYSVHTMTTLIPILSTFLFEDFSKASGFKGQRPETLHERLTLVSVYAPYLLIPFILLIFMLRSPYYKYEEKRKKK

With (+)-SKF-10047, the “affinity for the sigma-2 site” value at sigma-2 site is recorded as “micromolar affinity”.

For the substance UKH-1114, in data set [1], the mechanical hypersensitivity entry was “relieved mechanical hypersensitivity”.
